Test results reported in patent publication US8309734B2 (Hoffmann-La Roche Inc., priority 2008, dated 2012).

Target: T1, human GPBAR1 receptor (Homo sapiens, UniProt Q8TDU6)
T1 construct: expressed in transfected cells
T1 sequence (Q8TDU6 1-330): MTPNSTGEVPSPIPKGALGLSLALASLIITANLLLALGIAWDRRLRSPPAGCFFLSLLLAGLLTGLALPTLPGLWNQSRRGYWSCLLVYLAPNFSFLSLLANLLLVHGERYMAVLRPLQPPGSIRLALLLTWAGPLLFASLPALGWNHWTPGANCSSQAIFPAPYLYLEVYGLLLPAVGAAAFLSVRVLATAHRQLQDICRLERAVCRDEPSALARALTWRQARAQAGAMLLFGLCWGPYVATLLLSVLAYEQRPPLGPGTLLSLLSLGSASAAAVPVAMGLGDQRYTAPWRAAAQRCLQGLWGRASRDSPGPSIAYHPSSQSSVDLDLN
Experiment: functional cAMP assay in CHO-dhfr(minus) cells expressing human GPBAR1 receptors
Type: cell-based
Details: cAMP increase (TR-FRET) in CHO-dhfr(minus) cells expressing human GPBAR1; compounds incubated 30 min at 30° C.

SMILES | EC50
O=C(c1cccnc1Oc1cc(Cl)ccc1Cl)N1CCN(CC2CCC2)c2ccccc21 [Example 139, (4-Cyclobutylmethyl-3,4-dihydro-2H-quinoxalin-1-yl)-[2-(2,5-dichloro-phenoxy)-pyridin-3-yl]-methasone] | 926 nM
CC(=O)OCCN1CCN(C(=O)c2cccnc2Oc2cc(Cl)ccc2Cl)c2ccccc21 [Example 140, Acetic acid 2-{4-[2-(2,5-dichloro-phenoxy)-pyridine-3-carbonyl]-3,4-dihydro-2H-quinoxalin-1-yl}-ethyl ester] | 259 nM
CCOC(=O)CN1CCN(C(=O)c2cccnc2Oc2cc(Cl)ccc2Cl)c2ccccc21 [Example 141, {4-[2-(2,5-Dichloro-phenoxy)-pyridine-3-carbonyl]-3,4-dihydro-2H-quinoxalin-1-yl}-acetic acid ethyl ester] | 324 nM
O=C(O)CN1CCN(C(=O)c2cccnc2Oc2cc(Cl)ccc2Cl)c2ccccc21 [Example 142, {4-[2-(2,5-Dichloro-phenoxy)-pyridine-3-carbonyl]-3,4-dihydro-2H-quinoxalin-1-yl}-acetic acid] | 307 nM
O=C(O)CCc1ccc(S(=O)(=O)N2CCN(C(=O)c3cccnc3Oc3cc(Cl)ccc3Cl)c3ccccc32)cc1 [Example 143, 3-(4-{4-[2-(2,5-Dichloro-phenoxy)-pyridine-3-carbonyl]-3,4-dihydro-2H-quinoxaline-1-sulfonyl}-phenyl)-propionic acid] | 745 nM
O=C(c1cccnc1Oc1cc(C(F)(F)F)ccc1F)N1CCCc2ccccc21 [Example 144, (3,4-Dihydro-2H-quinolin-1-yl)-[2-(2-fluoro-5-trifluoromethyl-phenoxy)-pyridin-3-yl]-methanone] | 286 nM
COc1ncccc1N(C)C(=O)c1cc(F)cnc1Oc1cc(Cl)ccc1Cl [Example 145, 2-(2,5-Dichloro-phenoxy)-5-fluoro-N-(2-methoxy-pyridin-3-yl)-N-methyl-nicotinamide] | 29 nM
COc1ccc(Cl)c(N(C)C(=O)c2cc(F)cnc2Oc2cc(Cl)ccc2Cl)c1Cl [Example 146, N-(2,6-Dichloro-3-methoxy-phenyl)-2-(2,5-dichloro-phenoxy)-5-fluoro-N-methyl-nicotinamide] | 1970 nM
O=C(c1cc(F)cnc1Oc1cc(Cl)ccc1Cl)N1CCNc2ccccc21 [Example 147, [2-(2,5-Dichloro-phenoxy)-5-fluoro-pyridin-3-yl]-(3,4-dihydro-2H-quinoxalin-1-yl)-methanone] | 15 nM
COC(=O)C1CCN(C(=O)c2cc(F)cnc2Oc2cc(Cl)ccc2Cl)c2ccccc21 (centres unmarked) [Example 148, 1-[2-(2,5-Dichloro-phenoxy)-5-fluoro-pyridine-3-carbonyl]-1,2,3,4-tetrahydro-quinoline-4-carboxylic acid methyl ester] | 1960 nM
O=C(c1cc(F)cnc1Oc1cc(Cl)ccc1Cl)N1Cc2cccn2-c2ccccc21 [Example 149] | 155 nM
O=C(c1cc(F)cnc1Oc1cc(Cl)ccc1Cl)N1CCN(C2CCC2)c2ccccc21 [Example 150, (4-Cyclobutyl-3,4-dihydro-2H-quinoxalin-1-yl)-[2-(2,5-dichloro-phenoxy)-5-fluoro-pyridin-3-yl]-methanone] | 58 nM
O=C(c1cc(F)cnc1Oc1cc(Cl)ccc1Cl)N1CCN(Cc2ccoc2)c2ccccc21 [Example 151, [2-(2,5-Dichloro-phenoxy)-5-fluoro-pyridin-3-yl]-(4-furan-3-ylmethyl-3,4-dihydro-2H-quinoxalin-1-yl)-methanone] | 1070 nM
O=C(c1cc(F)cnc1Oc1cc(Cl)ccc1Cl)N1CCN(CC2CCC2)c2ccccc21 [Example 152, (4-Cyclobutylmethyl-3,4-dihydro-2H-quinoxalin-1-yl)-[2-(2,5-dichloro-phenoxy)-5-fluoro-pyridin-3-yl]-methanone] | 689 nM
O=C(c1cc(F)cnc1Oc1cc(Cl)ccc1Cl)N1CCN(CCC(F)(F)F)c2ccccc21 [Example 153, [2-(2,5-Dichloro-phenoxy)-5-fluoro-pyridin-3-yl]-[4-(3,3,3-trifluoro-propyl)-3,4-dihydro-2H-quinoxalin-1-yl]-methanone] | 565 nM
CCOC(=O)CN1CCN(C(=O)c2cc(F)cnc2Oc2cc(Cl)ccc2Cl)c2ccccc21 [Example 154, {4-[2-(2,5-Dichloro-phenoxy)-5-fluoro-pyridine-3-carbonyl]-3,4-dihydro-2H-quinoxalin-1-yl}-acetic acid ethyl ester] | 53 nM

SMILES | EC50
O=C(O)CN1CCN(C(=O)c2cc(F)cnc2Oc2cc(Cl)ccc2Cl)c2ccccc21 [Example 155, {4-[2-(2,5-Dichloro-phenoxy)-5-fluoro-pyridine-3-carbonyl]-3,4-dihydro-2H-quinoxalin-1-yl}-acetic acid] | 788 nM
CCOC(=O)CCN1CCN(C(=O)c2cc(F)cnc2Oc2cc(Cl)ccc2Cl)c2ccccc21 [Example 156, 3-{4-[2-(2,5-Dichloro-phenoxy)-5-fluoro-pyridine-3-carbonyl]-3,4-dihydro-2H-quinoxalin-1-yl}-propionic acid ethyl ester] | 841 nM
CC(CN1CCN(C(=O)c2cc(F)cnc2Oc2cc(Cl)ccc2Cl)c2ccccc21)C(=O)O (centres unmarked) [Example 157, 3-{4-[2-(2,5-Dichloro-phenoxy)-5-fluoro-pyridine-3-carbonyl]-3,4-dihydro-2H-quinoxalin-1-yl}-2-methyl-propionic acid] | 1680 nM
CCOC(=O)CCCN1CCN(C(=O)c2cc(F)cnc2Oc2cc(Cl)ccc2Cl)c2ccccc21 [Example 158, 4-{4-[2-(2,5-Dichloro-phenoxy)-5-fluoro-pyridine-3-carbonyl]-3,4-dihydro-2H-quinoxalin-1-yl}-butyric acid ethyl ester] | 384 nM
CCOC(=O)CCCCN1CCN(C(=O)c2cc(F)cnc2Oc2cc(Cl)ccc2Cl)c2ccccc21 [Example 159, 5-{4-[2-(2,5-Dichloro-phenoxy)-5-fluoro-pyridine-3-carbonyl]-3,4-dihydro-2H-quinoxalin-1-yl}-pentanoic acid ethyl ester] | 395 nM
COC(=O)CCCCCN1CCN(C(=O)c2cc(F)cnc2Oc2cc(Cl)ccc2Cl)c2ccccc21 [Example 160, 6-{4-[2-(2,5-Dichloro-phenoxy)-5-fluoro-pyridine-3-carbonyl]-3,4-dihydro-2H-quinoxalin-1-yl}-hexanoic acid methyl ester] | 724 nM
O=C(O)CCCCCN1CCN(C(=O)c2cc(F)cnc2Oc2cc(Cl)ccc2Cl)c2ccccc21 [Example 161, 6-{4-[2-(2,5-Dichloro-phenoxy)-5-fluoro-pyridine-3-carbonyl]-3,4-dihydro-2H-quinoxalin-1-yl}-hexanoic acid] | 104 nM
COC(=O)c1ccc(C(=O)N2CCN(C(=O)c3cc(F)cnc3Oc3cc(Cl)ccc3Cl)c3ccccc32)cc1 [Example 162, 4-{4-[2-(2,5-Dichloro-phenoxy)-5-fluoro-pyridine-3-carbonyl]-3,4-dihydro-2H-quinoxaline-1-carbonyl}-benzoic acid methyl ester] | 1160 nM
O=C(c1cccnc1Oc1cc(Cl)c(Br)cc1Cl)N1CCN(C2CC2)c2ccccc21 [Example 163, [2-(4-Bromo-2,5-dichloro-phenoxy)-pyridin-3-yl]-(4-cyclopropyl-3,4-dihydro-2H-quinoxalin-1-yl)-methanone] | 54 nM
O=C(c1cccnc1Oc1cc(Cl)c(C#CCO)cc1Cl)N1CCN(C2CC2)c2ccccc21 [Example 164, (4-Cyclopropyl-3,4-dihydro-2H-quinoxalin-1-yl)-{2-[2,5-dichloro-4-(3-hydroxy-prop-1-ynyl)-phenoxy]-pyridin-3-yl}-methanone] | 36 nM
O=C(c1cccnc1Oc1cc(Cl)c(Br)cc1Cl)N1CCCc2ccccc21 [Example 165, [2-(4-Bromo-2,5-dichloro-phenoxy)-pyridin-3-yl]-(3,4-dihydro-2H-quinolin-1-yl)-methanone] | 340 nM
COC(=O)CCC#Cc1cc(Cl)c(Oc2ncccc2C(=O)N2CCCc3ccccc32)cc1Cl [Example 166, 5-{2,5-Dichloro-4-[3-(3,4-dihydro-2H-quinoline-1-carbonyl)-pyridin-2-yloxy]-phenyl}-pent-4-ynoic acid methyl ester] | 148 nM
COC(=O)c1ccc(C#Cc2cc(Cl)c(Oc3ncccc3C(=O)N3CCN(C4CC4)c4ccccc43)cc2Cl)cc1Cl [Example 167, 2-Chloro-4-{2,5-dichloro-4-[3-(4-cyclopropyl-3,4-dihydro-2H-quinoxaline-1-carbonyl)-pyridin-2-yloxy]-phenylethynyl}-benzoic acid methyl ester] | 211 nM
O=C(O)c1ccc(C#Cc2cc(Cl)c(Oc3ncccc3C(=O)N3CCN(C4CC4)c4ccccc43)cc2Cl)cc1Cl [Example 168, 2-Chloro-4-{2,5-dichloro-4-[3-(4-cyclopropyl-3,4-dihydro-2H-quinoxaline-1-carbonyl)-pyridin-2-yloxy]-phenylethynyl}-benzoic acid] | 1440 nM
O=C(O)c1ccc(CCc2cc(Cl)c(Oc3ncccc3C(=O)N3CCN(C4CC4)c4ccccc43)cc2Cl)cc1Cl [Example 169, 2-Chloro-4-(2-{2,5-dichloro-4-[3-(4-cyclopropyl-3,4-dihydro-2H-quinoxaline-1-carbonyl)-pyridin-2-yloxy]-phenyl}-ethyl)-benzoic acid] | 127 nM
O=C(O)c1ccc(CCc2cc(Cl)c(Oc3ncccc3C(=O)N3CCN(C4CC4)c4ccccc43)cc2Cl)cc1 [Example 170, 4-(2-{2,5-Dichloro-4-[3-(4-cyclopropyl-3,4-dihydro-2H-quinoxaline-1-carbonyl)-pyridin-2-yloxy]-phenyl}-ethyl)-benzoic acid] | 69 nM
